{"source": "patent US20230310464A1", "about": "“USE OF C[…] THE TREATMENT OF SEIZURES ASSOCIATED WITH RARE […] SYNDROMES RELATED TO BRAIN INJURY” (GW Research Limited, priority 2020, published 2023)", "origin": "cited, not measured here", "key": {"[1]": {"tested_on": "HI injury in an animal model of NHIE", "settings": "CBD combined with therapeutic hypothermia, GB 2504263; cited from earlier work"}, "[2]": {"tested_on": "patients with Dravet and Lennox-Gastaut syndrome", "settings": "purified pharmaceutical formulation of CBD, three trials; cited from earlier work"}, "[3]": {"tested_on": "new-born piglets with HIE", "settings": "Alvarez et al. (2008); cited from earlier work"}}}
{"smiles": "C=C(C)[C@@H]1CCC(C)=C[C@H]1c1c(O)cc(CCCCC)cc1O", "note": "[CBD, cannabidiol]", "values": [{"measurement": "neuroprotection following HI injury (in words)", "setting": "[1]", "result": "synergistic in neuroprotection"}, {"measurement": "efficacy in randomized control trials (in words)", "setting": "[2]", "result": "showed efficacy"}, {"measurement": "effect on seizures in piglets (in words)", "setting": "[3]", "result": "A reduction in seizures was reported"}, {"measurement": "proportion of CBD-treated piglets that still maintained significant seizures", "setting": "[3]", "result": "half"}]}
